Type in all cases: physicochemical
Data set [1] can be described thus: Hydrogel formation, vial inversion test (critical gel concentration). The text has this: (§1) The simplest method to determine whether a suitable hydrogel has formed is to use the vial inversion test. Through visual inspection, a material can be categorised as a solution, viscous solution, partial gel, or solid-like gel. A stable hydrogel needs to be able to hold its weight and/or maintain its shape during this assessment.
(§2) The critical gel concentration (CGC) is defined as the minimum mass of a short peptide required to provide a self-supporting hydrogel per unit volume in the vial inversion test (measured as % w/v).
(§3) Pre-weighed samples of short peptide 4 were prepared in aluminium-covered glass vials and Milli-Q water and 2 equivalents of NaOH (1.0 M) were added to make up concentrations of 1% w/v. The resulting suspensions were vortexed for 5 minutes to provide clear yellow solutions with pH 11.
(§4) To create a high ionic strength environment, 1 equivalent of NaCl was added and the vial was left to stand without disturbance for 3 hours at room temperature. Meanwhile, as an attempt to form a hydrogel by lowering the pH, 2 equivalents of GdL were added to a high pH solution of 4 followed by gentle mixing. These vials were inverted and allowed to stand overnight to confirm the hydrogel formation.
(§5) The formation of hydrogel 4 via the solvent switch method was conducted by dissolving short peptide 4, in an aluminium covered glass vial, with either 50% methanol, ethanol, or dimethyl sulfoxide (DMSO). Respective amounts of Mili-Q water were added to make up concentrations of 1% w/v.
(§6) In addition, gelation time was defined as the time (hours) required for 1% w/v of short peptide 4 to form a hydrogel which can be turned upside down without collapsing.
(§7) Pre-weighed samples of short peptides 10a-17a, 18, and 19 were prepared in glass vials with 10 mm internal diameter, and Milli-Q water was added to make up concentrations of 1% w/v. The resulting suspensions of short peptides 13, 18, and 19 (as ammonium or guanidinium salts) were slowly warmed until all solid had completely dissolved. GdL (1.5 to 2.0 equivalents) was added to the suspension of short peptides 10a-17a, before heat was applied. To create a high ionic strength environment, 1-5 equivalents of NaCl was added to the viscous solution of 10a-17a to make the total volume up to 1 mL, followed by gentle mixing, and the vial was left to stand without disturbance for 3 hours at room temperature. Subsequently, these vials were inverted and allowed to stand overnight to confirm hydrogel formation.

Assay in data set [2]: as above
Details: key: VS: viscous solution; CG: clear gel.
Source text: as §1, §2, §3, §4, §5, §6, §7

Data set [3] can be described thus: Frequency sweep test (FST), rheometer. The conditions noted are these: for G′: 1% w/v. As to the method: The mechanical properties of anthranilamide-based cationic hydrogels were assessed using an Anton Paar MCR 302 rheometer with a 25 mm stainless parallel plate configuration.
(§8) Initially, 1 mL of hydrogels were prepared from short peptides 11-13 and 15-19 in glass vials at concentration of 1% w/v. These vials were warmed using a heat gun to transform the hydrogel to the solution phase. Subsequently, 560 μL of the resulting solutions were cast onto the rheometer plate. The other plate was lowered to the measuring position ([…]) and the hydrogel was allowed to stand for 3 hours for the gel to form. The FST was conducted at fixed strain of 0.1% and frequency ranging from 10 Hz to 0.01 Hz. Meanwhile, the strain sweep test (SST) was performed at a frequency of 1 Hz using 0.1% strain to 100% strain. The rheology data were shown as the average of three repeats for each data point.
(§9) The mechanical properties of hydrogels 4 (formed via addition of NaCl or GdL) before and after blue light irradiation were also assessed using an Anton Paar MCR 302 rheometer with a 25 mm stainless parallel plate configuration. Prior to the hydrogel formation, 560 μL of solution phase of short peptide 4 at 1% w/v were transferred onto a rheometer plate. Meanwhile, hydrogel 4, which had been exposed to blue light, was warmed using a heat gun, to provide its solution phase. Subsequently, 560 μL of this solution phase was cast onto the rheometer plate. The other plate was lowered to the measuring position ([…]) and the hydrogel was allowed to stand for 3 hours for the gel to form. The frequency sweep test (FST) was conducted at fixed strain of 0.1% and frequency ranging from 10 Hz to 0.01 Hz. Meanwhile, the SST was performed at a frequency of 1 Hz using 0.1% strain to 100% strain. In addition, the temperature sweep test was conducted to obtain transition glass (Tg) using fixed frequency of 1 Hz and fixed strain of 0.1% with temperature ramping from 25° C. to 90° C. The rheology data were shown as the average of three repeats for each data point.
In the FST, samples were measured over a range of oscillation frequencies (0.1-10 rad/s) at fixed strain, temperature, and oscillation amplitude. Higher frequencies simulate fast motion on a short time-scale, while low frequencies simulate slow motion on a long time-scale, or rest. All of the hydrogels made from the anthranilamide-based short cationic peptides, which passed the vial inversion test, were subjected to the FST using a rheometer to precisely assess their mechanical properties.

Data set [4] is described as follows: Atomic force microscopy (AFM) of fibers. As to the method: Hydrogels of NO-releasing short peptide 4 (1 drop), at high pH, low pH, and after irradiation, were cast onto a mica substrate. Hydrogels of cationic short peptides 11-13 and 15-19 were prepared at their CGC, 2× below, and 4× below CGC in glass vials. Prior to gelation, one drop of the cationic short peptide solutions was cast onto a mica substrate. Using a glass slide, each droplet was carefully spread and was left to dry overnight before imaging. Imaging was performed using a Bruker Multimode 8 Atomic Force Microscope in Scanasyst Air (PeakForce Tappings) mode, which is based on tapping mode AFM. To prevent damage of soft samples, the imaging parameters were constantly optimized through the force curves that were collected. Bruker Scanasyst-Air probes were used, with a spring constant of 0.4-0.8 N·m^−1 and a tip radius of 2 nm.
To gain some insight on the mechanism of antibacterial action, the released solutions from hydrogel made of primary ammonium 11 were directly cast onto a mica substrate. […] After gently spreading using a glass slide and left to dry overnight, these samples were imaged using a similar manner as describe above.

Data set [5] can be described thus: Strain sweep test (SST), linear viscoelastic region. As to the method:
as §8, §9
To observe the structural decay in anthranilamide-based cationic hydrogels, the SST was performed by imposing a non-linear strain. SST provides information about the viscoelastic properties of a hydrogel through determination of its linear viscoelastic region (LVER). […] Here, the LVER reported for each hydrogel represents the deviation of storage modulus (G′) from linearity, known as yield point (γy). Yield points have been reported to reflect a point where the rigidity of a hydrogel starts to weaken.

Where [6] appears, read: hydrogels 11-13 at 1% w/v, FST fixed strain 0.1%.

Structures are written as SMILES. Several values for one entry are separate records, joined by “and”; a condition that tells them apart may be missing. Identical values can stand only once.

As to `O=C(Nc1ccccc1C(=O)N[C@@H](Cc1ccccc1)C(=O)N[C@@H](Cc1ccccc1)C(=O)O)c1ccc([N+](=O)[O-])c(C(F)(F)F)c1` [Compound 4, (2-(4-Nitro-3-(trifluoromethyl)benzamido)benzoyl)-L-phenylalanyl-L-phenylalanine], the “Time (gelation time)” value was “Immed” in data set [1] (solvent switch, DMSO 50 % v/v, 1% w/v); “Immed” in data set [1] (solvent switch, EtOH 5 % v/v); “Immed” in data set [1] (solvent switch, EtOH 50 % v/v, 1% w/v); “Immed” in data set [1] (solvent switch, MeOH 50 % v/v, 1% w/v). The “CGC (critical gel concentration)” value in data set [1] (solvent switch, co-solvent DMSO 50 % v/v) amounted to 0.4 % w/v; in data set [1] (solvent switch, co-solvent EtOH 50 % v/v), 0.4 % w/v; in data set [1] (solvent switch, co-solvent MeOH 50 % v/v) it was 0.4 % w/v; in data set [1] (trigger NaOH + GdL (pH switch)), 0.2 % w/v; in data set [1] (trigger NaOH + NaCl), 0.2 % w/v. Further, the “Time (self-assembly/gelation)” value in data set [1] (trigger NaOH) came to 48 h; in data set [1] (trigger NaOH + GdL), 1 h; in data set [1] (trigger NaOH + NaCl) it was 3 h. The pH in data set [1] (trigger NaOH) was 11; in data set [1] (trigger NaOH + GdL), 5.5 and 5.2; in data set [1] (trigger NaOH + NaCl), 11. For the same compound, the results for the “Remarks (gel state)” value in data set [2] (trigger NaOH), in data set [2] (trigger NaOH + GdL) and in data set [2] (trigger NaOH + NaCl) were “VS”, “CG” and “CG”, respectively. In addition, the “G′/G″” value in data set [3] (hydrogel 4 at pH 5.5-6) is recorded as 17; in data set [3] (hydrogel 4 at pH 11) it was 12. The “G″” value in data set [3] (hydrogel 4 at pH 5.5-6) turned out to be 0.6 kPa; in data set [3] (hydrogel 4 at pH 11) it was 1.1 kPa. The “G′” value in data set [3] (hydrogel 4 at pH 5.5-6 (low pH, GdL), before irradiation) amounted to 10.2 kPa; in data set [3] (hydrogel 4 at pH 11 (high pH, NaCl)) it was 13.2 kPa. Besides, in data set [3] (hydrogel 4 irradiated (λ=440-450 nm) for 2 hours, after NO release), the “G′ after irradiation” value worked out at 4.9 kPa. The “diameter of larger (bundled) fibers” value in data set [4] (hydrogel 4, before irradiation) is 104±4 nm. The results for the fiber diameter in data set [4] (hydrogel 4 formed at high pH) and in data set [4] (hydrogel 4 formed at low pH) were 40±3 nm and 43±5 nm, respectively. The “fiber bundle diameter after irradiation” value in data set [4] (hydrogel 4 irradiated for 2 hours (blue light)) was found to be 68±6 nm. The figures for the “% strain (LVER)” value in data set [5] (hydrogel 4 at pH 5.5-6) and in data set [5] (hydrogel 4 at pH 11) were 1.4% and 1.2%, respectively.

In data set [1] (cationic peptides 10-14, triggers GdL, heat and NaCl (13: heat and NaCl)), `NCCCNC(=O)[C@H](Cc1ccccc1)NC(=O)c1ccccc1NC(=O)c1ccc2ccccc2c1` [Compound 11] displayed a CGC of 0.1 % w/v. For the same compound, the pH in data set [1] (hydrogels of cationic peptides 10-14) is listed as 5.5. Besides, the “Remarks (gel state)” value in data set [2] (cationic peptides 10-14, vial inversion test) is “CG”. In addition, the “G′/G″ ratio” value in data set [3] (hydrogels 11-13 at 1% w/v) was found to be 11.9. For the same compound, in data set [3] (setting [6]), the “G′ (modulus storage)” value amounted to 0.83 kPa and the “G″ (modulus loss)” value came to 0.07 kPa. For the same compound, the fiber bundle diameter in data set [4] (hydrogel after addition of salt, 4× below CGC) worked out at 115±5 nm. Moreover, the “diameter of fibers in the released solution” value in data set [4] (solution released from hydrogel 11, below CGC) came out at 47±4.9 nm. Also, the fiber diameter in data set [4] (viscous solution without salt, 0.05% w/v) turned out to be 74±6 nm. Moreover, in data set [5] (hydrogels at 1% w/v, SST at 1 Hz, 0.1% to 100% strain), the “LVER (linear viscoelastic region)” value is reported as 0.98 ± 0.05%.

Source of the values: patent US20230123497A1, “NOVEL ANTIBACTERIAL HYDROGELS” (NewSouth Innovations Pty Limited, priority 2020, published 2023).
